The conditions of series [1]: for effect on weight: SOD1 or wild type mice, nimesulide diet vs normal diet, weighed weekly. The protocol:
(§1) Mice Studies were performed on 8 week old female mice overexpressing mutated human superoxide dismutase (codon 93 glycine→alanine G93A (TgN[SOD1-G93A]1Gur(Gurney et al., 1994, Science 264(5166):1772-1775) Jackson Laboratory, Bar Harbor, Me.; “SDO1 mice”) and their wild type littermates. Mice were housed on a 12 hour day/light cycle and (beginning at 45 d of age) allowed ad libitum access to either nimesulide (NMS)-supplemented (19 g/10 kg) chow, delivering ˜[…] per day to the animal, or, as a control, plain NIH-07 formula cold press chow processed into identical ½ inch pellets (Zeigler Bros Inc, Garners, Pa.). Genotyping was conducted at 21 days of age as described in Gurney et al., 1994, Science 264(5166):1772-1775.
Health/Neurologic Status. To assess health status mice were weighed weekly and examined for changes in lacrimation/salivation, palpebral closure, ear twitch and pupillary responses, whisker orienting, postural and righting reflexes and Body Condition Score (BCS) (Ullman-Cullere 1999). Finally, a general pathological examination was conducted at time of sacrifice.

The test system of series [2] is SOD1 mutant mice. The protocol: as §1
(§2) Rotarod and Grid Walking Tests. To assess balance, coordination and muscle strength mice were tested on the accelerating rotarod (7650 Ugo Basile Biol. Res. App., Italy) and grid walking tests. […] For the grid walking test, animals were placed into the distal end of a walled chamber (15 cm W×60 cm L, 20 cm high walls and a wire mesh bottom) suspended 1 meter above the floor. The number of foot misses (entire paw and portion of limb pokes through the wire mesh) while crossing a distance of 60 cm was recorded.

A further series is described as follows: in vivo. To be noted: for Kp: female, mouse, brain (cerebral cortex parenchyma) relative to serum, oral. As to the method:
as §1
(§3) Pathology examination. To evaluate molecular changes during the period of therapeutic efficacy of NMS, a sub group of mice were sacrificed by cervical dislocation 95-105 d of age. Blood, brain and lumbar spinal cord samples were then rapidly harvested and prepared for analysis.
Nimesulide and Prostaglandin E2. […] Prostaglandin-E2 expression in the left caudal hemisphere of the brain (including substantia nigra, and motor cortex) was measured by immuno-assay (Cayman Ann Arbor, Mich.), which was performed as follows. Briefly, pulverized brain tissue stored in liquid N2 was homogenized in 0.1M phosphate-buffered saline (containing 1 mM EDTA and 10 μM indomethacin), mixed with an equal volume of ethanol, and centrifuged. The supernatant was diluted with 50 mM acetic buffer and purified through an affinity column (Cayman). The column was equilibrated with column buffer (0.1M phosphate-buffered saline, 7.7 mM NaN3, 0.5 M […]) followed by UltraPure water, the supernatant was then eluted from the 4 ml column by adding the elution solution and allowing it to pass through the packing material. The eluate was then evaporated and re-dissolved in enzyme-linked immunoassay buffer, applied to a 96-well plate pre-coated with goat anti-mouse IgG and incubated with PGE2 monoclonal antibody and (recovery tracer) for 18 hr at 4° C. […]

The test system of series [3] is SOD1 mutant mice. As to the method:
as §1, §2
The source holds these as a separate data set.

Series [4] deals with 4.8 kDa protein (also 5.3 and 5.7 kDa proteins) in spinal cord of SOD1 mice. As to the method: as §1, §3
For the next series, the system named is Prostaglandin E2. As to conditions: SOD1 (or WT) mice, prophylactic nimesulide in the diet, FIG. 4B. The protocol:
as §1, §3
Nimesulide and Prostaglandin E2. […] Prostaglandin-E2 expression in the left caudal hemisphere of the brain (including substantia nigra, and motor cortex) was measured by immuno-assay (Cayman Ann Arbor, Mich.), which was performed as follows. […]

The conditions of series [5]: geriatric patients, periods greater than two years; cited from earlier work.
[6] abbreviates: SOD1 mice on NMS diet, control diet mean onset at 108 days.

Read-outs that look alike come from different tables or passages of the source.

By Kp is commonly meant the ratio of the level in a tissue or fluid to that in plasma or blood. Regarding `CS(=O)(=O)Nc1ccc([N+](=O)[O-])cc1Oc1ccccc1` [nimesulide, 4-nitro-2-phenoxymethanesulfonanilide], the effect on weight entry in series [1] is “No detectable difference”; in series [1] (listed as NMS), “no effect”. For the same compound, the health/neurologic tests result in series [1] (all groups, SOD1 groups showed decreased BCS and impaired reflexes after hind limb paralysis) was “unremarkable”. In the series on SOD1 mutant mice [2] (NMS-treated SOD1 mice, rotarod and grid walking tests), the “onset of impairment relative to untreated counterparts” value is “significant delay”. Moreover, the “age until which motor skill integrity was exhibited” value is listed as 120 days of age in the series with SOD1 mutant mice [2] (setting [6]) and 124 days of age with SOD1 mutant mice [3] (setting [6]). The “delay in the onset of motor impairment” value in the series with SOD1 mutant mice [2] (SOD1 mice, nimesulide-supplemented chow vs control diet, n=6, P<0.05, FIG. 1) is 10 days. In “in vivo” (delivery through feeding, 2-3 months treatment, at onset of bilateral hind-limb paralysis, FIG. 4A), the “nimesulide concentration in serum” value is “approximately 30 μM”. In addition, the values for the Kp in the series “in vivo” (TgN[SOD1-G93A]1Gur (SOD1-G93A transgenic)) and in “in vivo” were approximately 0.1 and 0.1, respectively. Further, the “motor ability maintained beyond SOD1 mice fed control diet” value in the series with SOD1 mutant mice [3] (SOD1 mice, nimesulide diet, n=6, P<0.05 on days 113, 115, 122, 124, FIG. 2) was 10 days. Besides, in series [4] (SOD1 mice with NMS treatment, prior to onset of motor impairment, FIGS. 3A and B), the “level of approximately 4.8 kDa protein (negatively charged at pH 9) in spinal cord” value was “regulated back to control levels”. Also, the “levels of approximately 5.3 and 5.7 kDa proteins” value in series [4] (SOD1 mice, lumbar spinal cord, proteins increase with disease progression) is listed as “decrease”. In the series with Prostaglandin E2, the PG-E2 content result was “decreased”. Also, the tolerability result in series [5] was “well tolerated”.

These data come from US20060041022A1, “Treatment of amyotrophic lateral sclerosis with nimesulide” (priority 2002, published 2006).
